pIC50: −log10 of the molar value.
Molecular target: T1, Protein tyrosine phosphatase 1B (PTP1B) (Homo sapiens, UniProt P18031)
T1 construct: gene PTPN1
T1 sequence (P18031 1-435): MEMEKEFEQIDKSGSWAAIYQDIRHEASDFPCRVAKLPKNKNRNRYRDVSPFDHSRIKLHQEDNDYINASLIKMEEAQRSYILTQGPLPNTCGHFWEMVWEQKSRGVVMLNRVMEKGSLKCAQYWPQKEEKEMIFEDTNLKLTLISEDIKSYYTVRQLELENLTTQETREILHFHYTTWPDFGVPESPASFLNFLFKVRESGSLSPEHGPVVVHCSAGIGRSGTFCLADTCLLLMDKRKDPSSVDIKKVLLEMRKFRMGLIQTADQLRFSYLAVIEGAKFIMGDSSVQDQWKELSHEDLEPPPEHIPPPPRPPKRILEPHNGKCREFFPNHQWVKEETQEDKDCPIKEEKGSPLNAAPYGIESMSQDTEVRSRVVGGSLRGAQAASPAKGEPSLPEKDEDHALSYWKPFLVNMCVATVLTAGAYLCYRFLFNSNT
Assay: pNPP phosphatase assay with commercial PTP1B, absorbance at […] nm
Type: biochemical

| Structure (SMILES) | pIC50 |
| --- | --- |
| O=c1c(-c2ccc(O)cc2)coc2cc(O[C@@H]3O[C@H](CO)[C@@H](O)[C@H](O)[C@H]3O)cc(O)c12 (single isomer, unassigned) [peak 11, genistin] | 4.42 |
| COc1ccc(-c2coc3c([C@@H]4O[C@H](CO)[C@@H](O)[C@H](O)[C@H]4O)c(O)ccc3c2=O)cc1 (single isomer, unassigned) [peak 12, 4′-methoxypuerarin] | 4.66 |
| COc1cc2c(=O)c(-c3ccc(O)cc3)coc2cc1O[C@@H]1O[C@H](CO)[C@@H](O)[C@H](O)[C@H]1O (single isomer, unassigned) [peak 9, glycitin] | 4.63 |

— paper PMC11207073, “Protein Tyrosine Phosphatase 1B Inhibitors of Pueraria lobata Based on the Spectrum–Effect Relationship by Q-Marker Selection” (Molecules, 2024)
